The values that follow are results of earlier work, collected in US20190364946A1, “POWDERS AND TABLETS COMPRISING OMEGA-3 FATTY ACID DERIVATIVES AND METHODS FOR THEIR PRODUCTION” (OMEGATRI AS, priority 2016, published 2019).

For this series the following is noted: for HLB value: from commercial and scientific sources; for Surfactants HLB: HLB of added surfactant or surfactant mixture.

Take sorbitan monostearate: the HLB value is on record as 4.7.

Consider Span 85, for which the “Surfactants HLB” value is on record as 1.8.

Turning to Span 80, the “Surfactants HLB” value is recorded as 4.3.

On to sorbitan stearate, for which the HLB value is given as 4.7.
